For data set [1], the system named is HIV-2ROD. Description: HIV cytoprotection assay, CEM-SS cells infected with HIV-2ROD (MTS). It is filed as cell-based. As for the experimental part:
(§1) For the HIV cytoprotection assay, CEM-SS cells were used and the viruses HIV-1IIIB, HIV-1RF, or HIV-2ROD.
(§2) Briefly, virus and cells were mixed in the presence of a test compounds and incubated for 6 days. […] Each assay plate contained the following controls: cell control wells (cells only), virus control wells (cells plus virus), compound toxicity control wells (cells plus compound only), compound colorimetric control wells (compound only), as well as the experimental wells (compound plus cells plus virus). Cytoprotection and compound cytotoxicity were assessed by MTS (CellTiter® 96 Reagent, Promega, Madison Wis.) dye reduction, and the IC50 (concentration inhibiting virus replication by 50%), TC50 (concentration resulting in 50% cell death) and a calculated T1 (therapeutic index TC50/IC50) were obtained. Each assay included the HIV reverse transcriptase inhibitor AZT as a positive control.

Data set [2] can be described thus: Compound cytotoxicity on uninfected CEM-SS cells (MTS). Particulars: human, read-out: TC50 (concentration resulting in 50% cell death). It is filed as cell-based. As for the experimental part: as §2
Data set [3] concerns HIV-1IIIB. Description: HIV cytoprotection assay, CEM-SS cells infected with HIV-1IIIB (MTS). It is filed as cell-based. Particulars: for IC50: read-out: IC50 (concentration inhibiting virus replication by 50%). The method, then: as §1, §2
Data set [4] concerns HIV-1. Description: Assay for virus release (HIV-1 p24 / VLP release) in Jurkat cells transfected with pNLenv1. Particulars: Human immunodeficiency virus 1, 24 h, VLP release one day after transfection, anti-CA immunoblot. It is filed as cell-based. The method, then: The POSH inhibitor Compound 1 was tested for its efficiency of viral budding and GAG expression and processing in treated and untreated Jurkat cells. The concentration of extracellular GAG p24 was used as an indication of viral budding.
Jurkat cells were incubated with Compound 1 for either 1 or 3 days. The next day, cells were transfected with the plasmid pNLenv1 (2 μg/ml). Virus-like particle (VLP) release was determined one day after transfection as follows: the culture medium of virus-expressing cells was collected and centrifuged at 500×g for 10 minutes. The resulting supernatant was passed through a 0.45 μm-pore filter and the filtrate was centrifuged at 14,000×g for 2 hours at 4° C. The corresponding cells were washed three times with phosphate-buffered saline (PBS) and then solubilized by incubation on ice for 15 minutes in lysis buffer containing the following components: 50 mM Hepes-NaOH, (pH 7.5), 150 mM NaCl, 1.5 mM MgCl2, 0.5% NP-40, 0.5% sodium deoxycholate, 1 mM EDTA, 1 mM EGTA and 1:200 dilution of protease inhibitor cocktail (EMD Biosciences, Inc.). […] The CA was detected after incubation with a secondary anti-rabbit horseradish peroxidase-conjugated antibody, and detected by Enhanced Chemi-Luminescence (ECL) (Amersham Biosciences, Corp.) and detected by fluorescence imaging (Typhoon Instrument, Amersham Biosciences, Corp.). […]
In general terms: In western blotting, separated proteins are transferred to a membrane and probed.

In data set [5] the target is T1, hPOSH (Homo sapiens, UniProt Q7Z6J0).
T1 construct: a fused GST-RING subunit of POSH protein and two fluorophore-conjugated detection reagents
T1 sequence (Q7Z6J0 12-53 limits assumed): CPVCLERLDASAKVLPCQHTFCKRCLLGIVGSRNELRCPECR
In words: HTS TR-FRET assay of POSH autoubiquitination. To be noted: in vitro TR-FRET, GST tagged hPOSH with E1 and UbcH5c; read-out: IC50, inhibition of POSH autoubiquitination. It counts as biochemical. The method, then:
In order to test compounds as inhibitors of POSH, a ubiquitin protein ligase (E3) containing a RING domain that mediates its own ubiquitination in a RING finger-dependent manner in the presence of E1 and E2, a HTS (high-throughput screening) homogeneous TR-FRET (Time-Resolved Fluorescence Resonance Energy Transfer) assay was conducted to monitor POSH autoubiquitination.
The assay employs an ubiquitin-activating enzyme (E1) and an ubiquitin-conjugating enzyme (E2), a fused GST-RING subunit of POSH protein and two fluorophore-conjugated detection reagents, namely anti-GSTXL665 and europium cryptate-labeled ubiquitin. This homogeneous assay is based on FRET between a Eu^3+ cryptate donor and a second fluorescent label (acceptor), allophycocyanin. Allophycocyanin, a 105 kDa phycobiliprotein, is crosslinked to ensure its stability.
The ubiquitination of POSH by ubiquitin cryptate and binding of the anti-GST tagged XL665 brings the fluorophores into close proximity allowing FRET reaction to occur (see diagram).
Self-ubiquitination of hPOSH was determined by homogenous time-resolved fluorescence resonance energy transfer assay (TR-FRET). […]
where: S=actual fluorescence, B=Fluorescence obtained in parallel incubation without cb1-b, C=Fluorescence obtained in reaction without added compounds. […]

Where two headings read alike, the source gives them in different places.

Turning to `Cc1cc(C)nc(NS(=O)(=O)c2cc(Cl)ccc2Cl)c1` [Compound 2, 2,5-dichloro-N-(4,6-dimethylpyridin-2-yl)benzenesulfonamide], the “Antiviral Index (TI), TC50/IC50” value in data set [1] was 3.80; in data set [3] (HIV-1IIIB, CEM-SS cells), 28.5. Moreover, the IC50 in data set [1] (Human immunodeficiency virus 2, 144 h, 6 days, read-out: IC50 (concentration inhibiting virus replication by 50%)) turned out to be 44.4 µM; in data set [3] (Human immunodeficiency virus 1, 144 h, HIV-1IIIB, CEM-SS cells, 6 days), 3.99 µM. Besides, the CC50 at 6 days in data set [2] (Table 1 (HIV-1IIIB experiment)) came out at 114 µM; in data set [2] (Table 2 (HIV-2ROD experiment)), 169 µM.

With `Cc1cc(C)nc(NS(=O)(=O)c2cc(Cl)ccc2Cl)n1` [Compound 1, 2,5-dichloro-N-(4,6-dimethylpyrimidin-2-yl)benzenesulfonamide], the IC50 worked out at 100 µM in data set [4]; 62 µM in data set [3] (Human immunodeficiency virus 1, CEM-SS, 144 h); 12 µM in data set [5]. The CC50 at 6 days in data set [2] (Table 1 (HIV-1IIIB experiment)) was over 100 µM. For the same molecule, in data set [3] (HIV-1IIIB, CEM-SS cells), the “Antiviral Index (TI), TC50/IC50” value is listed as over 1.61.

(Values after patent US20120015967A1, “PYRIMIDINE AND PYRIDINE DERIVATIVES AS POSH AND POSH-AP INHIBITORS” (PROTEOLOGICS, LTD., priority 2007, published 2012).)
